Experimental data from patent US10670605B2, “Cysteine reactive probes and uses thereof” (The Scripps Research Institute, priority 2015, dated 2020).
Counter-ions that a name gives are not always drawn.

Tests used:
Experiment in all cases: isoTOP-ABPP of compound-treated primary human T cells
Assay type in all cases: cell-based
[1] = molecular target: T1, Cys residues in primary human T cells (Homo sapiens, UniProt Q15306); conditions: IRF4 C194 (Q15306)
T1 sequence (Q15306 1-451): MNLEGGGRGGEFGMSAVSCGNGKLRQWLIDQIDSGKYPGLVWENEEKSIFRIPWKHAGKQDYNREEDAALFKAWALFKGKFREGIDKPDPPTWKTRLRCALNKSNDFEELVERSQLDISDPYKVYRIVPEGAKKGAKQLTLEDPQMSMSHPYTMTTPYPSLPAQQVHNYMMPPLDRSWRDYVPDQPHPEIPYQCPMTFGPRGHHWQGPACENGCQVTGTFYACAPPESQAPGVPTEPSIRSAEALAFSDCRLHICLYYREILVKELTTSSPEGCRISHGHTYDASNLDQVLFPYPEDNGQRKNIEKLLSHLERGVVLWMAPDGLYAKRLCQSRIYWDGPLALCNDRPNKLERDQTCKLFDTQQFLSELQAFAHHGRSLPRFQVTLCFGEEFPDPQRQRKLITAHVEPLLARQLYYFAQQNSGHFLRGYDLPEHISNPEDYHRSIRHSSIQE

[2] = molecular target: T2, Cys residues in primary human T cells (Homo sapiens, UniProt P49588); conditions: AARS C773 (P49588)
T2 sequence (P49588 1-968): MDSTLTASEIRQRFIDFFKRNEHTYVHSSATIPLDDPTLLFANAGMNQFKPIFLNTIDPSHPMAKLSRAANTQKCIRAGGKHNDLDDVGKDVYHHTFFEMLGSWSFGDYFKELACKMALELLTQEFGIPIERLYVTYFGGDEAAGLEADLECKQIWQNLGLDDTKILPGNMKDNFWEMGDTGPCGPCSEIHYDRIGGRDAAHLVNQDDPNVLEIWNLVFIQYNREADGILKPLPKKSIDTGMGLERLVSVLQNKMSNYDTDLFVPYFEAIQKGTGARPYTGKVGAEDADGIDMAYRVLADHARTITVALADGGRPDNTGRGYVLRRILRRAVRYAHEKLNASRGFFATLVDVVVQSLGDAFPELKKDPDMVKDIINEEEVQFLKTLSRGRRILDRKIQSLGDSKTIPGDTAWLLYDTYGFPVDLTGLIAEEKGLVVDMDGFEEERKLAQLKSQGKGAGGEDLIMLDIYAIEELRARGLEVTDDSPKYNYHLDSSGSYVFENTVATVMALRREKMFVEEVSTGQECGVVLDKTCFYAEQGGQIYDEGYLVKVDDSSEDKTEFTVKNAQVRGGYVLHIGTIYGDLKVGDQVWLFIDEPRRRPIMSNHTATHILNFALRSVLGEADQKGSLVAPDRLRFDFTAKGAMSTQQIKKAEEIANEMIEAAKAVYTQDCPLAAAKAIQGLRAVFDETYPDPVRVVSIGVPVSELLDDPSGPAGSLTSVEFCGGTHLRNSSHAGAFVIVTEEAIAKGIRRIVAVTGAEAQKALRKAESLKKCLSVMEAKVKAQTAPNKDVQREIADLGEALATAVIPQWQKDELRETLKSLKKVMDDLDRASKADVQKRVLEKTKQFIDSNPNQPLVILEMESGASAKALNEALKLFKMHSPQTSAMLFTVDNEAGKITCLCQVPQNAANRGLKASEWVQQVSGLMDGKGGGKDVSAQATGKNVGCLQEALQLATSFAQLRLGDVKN

[3] = molecular target: Cys residues in primary human T cells (Homo sapiens, UniProt Q7Z6Z7); conditions: HUWE1 C3372 (Q7Z6Z7)
[4] = molecular target: T3, Cys residues in primary human T cells (Homo sapiens, UniProt Q9UL40); conditions: ZNF346 C68 (Q9UL40)
T3 sequence (Q9UL40 1-294): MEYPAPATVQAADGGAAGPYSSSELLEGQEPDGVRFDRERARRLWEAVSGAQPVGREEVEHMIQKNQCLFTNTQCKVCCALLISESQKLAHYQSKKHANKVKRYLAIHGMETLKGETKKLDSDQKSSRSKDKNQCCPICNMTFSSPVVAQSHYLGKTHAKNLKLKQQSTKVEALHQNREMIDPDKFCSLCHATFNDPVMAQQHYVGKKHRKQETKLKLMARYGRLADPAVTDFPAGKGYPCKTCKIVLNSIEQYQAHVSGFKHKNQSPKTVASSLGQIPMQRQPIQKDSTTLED

[5] = molecular target: T4, Cys residues in primary human T cells (Homo sapiens, UniProt O95336); conditions: PGLS C32 (095336)
T4 sequence (O95336 1-258): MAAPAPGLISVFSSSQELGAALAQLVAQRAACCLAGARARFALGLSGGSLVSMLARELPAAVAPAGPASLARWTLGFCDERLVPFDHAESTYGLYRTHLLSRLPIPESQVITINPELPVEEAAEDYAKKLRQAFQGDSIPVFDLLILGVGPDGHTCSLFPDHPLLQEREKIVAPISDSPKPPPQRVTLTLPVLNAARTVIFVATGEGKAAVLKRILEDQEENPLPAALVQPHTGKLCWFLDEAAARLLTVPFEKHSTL

[6] = test system: Cys residues in primary human T cells; conditions: 4 h
[7] = molecular target: Cys residues in primary human T cells (Homo sapiens, UniProt P18583); conditions: SON C92 (P18583)
[8] = molecular target: Cys residues in primary human T cells (Homo sapiens, UniProt P46109); conditions: CRKL C249 (P46109)
Chain of Cys residues in primary human T cells (Homo sapiens, UniProt P46109) (P46109 whole entry): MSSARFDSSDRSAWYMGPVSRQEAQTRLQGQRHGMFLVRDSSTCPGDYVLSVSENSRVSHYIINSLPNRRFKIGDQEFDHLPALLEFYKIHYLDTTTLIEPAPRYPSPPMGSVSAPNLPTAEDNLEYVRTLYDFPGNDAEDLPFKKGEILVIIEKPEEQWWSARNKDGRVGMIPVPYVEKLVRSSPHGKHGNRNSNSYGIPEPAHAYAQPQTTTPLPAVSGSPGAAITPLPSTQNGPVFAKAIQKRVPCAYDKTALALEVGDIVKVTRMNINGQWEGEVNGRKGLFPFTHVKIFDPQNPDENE

Chain of Cys residues in primary human T cells (Homo sapiens, UniProt Q7Z6Z7) (Q7Z6Z7 whole entry): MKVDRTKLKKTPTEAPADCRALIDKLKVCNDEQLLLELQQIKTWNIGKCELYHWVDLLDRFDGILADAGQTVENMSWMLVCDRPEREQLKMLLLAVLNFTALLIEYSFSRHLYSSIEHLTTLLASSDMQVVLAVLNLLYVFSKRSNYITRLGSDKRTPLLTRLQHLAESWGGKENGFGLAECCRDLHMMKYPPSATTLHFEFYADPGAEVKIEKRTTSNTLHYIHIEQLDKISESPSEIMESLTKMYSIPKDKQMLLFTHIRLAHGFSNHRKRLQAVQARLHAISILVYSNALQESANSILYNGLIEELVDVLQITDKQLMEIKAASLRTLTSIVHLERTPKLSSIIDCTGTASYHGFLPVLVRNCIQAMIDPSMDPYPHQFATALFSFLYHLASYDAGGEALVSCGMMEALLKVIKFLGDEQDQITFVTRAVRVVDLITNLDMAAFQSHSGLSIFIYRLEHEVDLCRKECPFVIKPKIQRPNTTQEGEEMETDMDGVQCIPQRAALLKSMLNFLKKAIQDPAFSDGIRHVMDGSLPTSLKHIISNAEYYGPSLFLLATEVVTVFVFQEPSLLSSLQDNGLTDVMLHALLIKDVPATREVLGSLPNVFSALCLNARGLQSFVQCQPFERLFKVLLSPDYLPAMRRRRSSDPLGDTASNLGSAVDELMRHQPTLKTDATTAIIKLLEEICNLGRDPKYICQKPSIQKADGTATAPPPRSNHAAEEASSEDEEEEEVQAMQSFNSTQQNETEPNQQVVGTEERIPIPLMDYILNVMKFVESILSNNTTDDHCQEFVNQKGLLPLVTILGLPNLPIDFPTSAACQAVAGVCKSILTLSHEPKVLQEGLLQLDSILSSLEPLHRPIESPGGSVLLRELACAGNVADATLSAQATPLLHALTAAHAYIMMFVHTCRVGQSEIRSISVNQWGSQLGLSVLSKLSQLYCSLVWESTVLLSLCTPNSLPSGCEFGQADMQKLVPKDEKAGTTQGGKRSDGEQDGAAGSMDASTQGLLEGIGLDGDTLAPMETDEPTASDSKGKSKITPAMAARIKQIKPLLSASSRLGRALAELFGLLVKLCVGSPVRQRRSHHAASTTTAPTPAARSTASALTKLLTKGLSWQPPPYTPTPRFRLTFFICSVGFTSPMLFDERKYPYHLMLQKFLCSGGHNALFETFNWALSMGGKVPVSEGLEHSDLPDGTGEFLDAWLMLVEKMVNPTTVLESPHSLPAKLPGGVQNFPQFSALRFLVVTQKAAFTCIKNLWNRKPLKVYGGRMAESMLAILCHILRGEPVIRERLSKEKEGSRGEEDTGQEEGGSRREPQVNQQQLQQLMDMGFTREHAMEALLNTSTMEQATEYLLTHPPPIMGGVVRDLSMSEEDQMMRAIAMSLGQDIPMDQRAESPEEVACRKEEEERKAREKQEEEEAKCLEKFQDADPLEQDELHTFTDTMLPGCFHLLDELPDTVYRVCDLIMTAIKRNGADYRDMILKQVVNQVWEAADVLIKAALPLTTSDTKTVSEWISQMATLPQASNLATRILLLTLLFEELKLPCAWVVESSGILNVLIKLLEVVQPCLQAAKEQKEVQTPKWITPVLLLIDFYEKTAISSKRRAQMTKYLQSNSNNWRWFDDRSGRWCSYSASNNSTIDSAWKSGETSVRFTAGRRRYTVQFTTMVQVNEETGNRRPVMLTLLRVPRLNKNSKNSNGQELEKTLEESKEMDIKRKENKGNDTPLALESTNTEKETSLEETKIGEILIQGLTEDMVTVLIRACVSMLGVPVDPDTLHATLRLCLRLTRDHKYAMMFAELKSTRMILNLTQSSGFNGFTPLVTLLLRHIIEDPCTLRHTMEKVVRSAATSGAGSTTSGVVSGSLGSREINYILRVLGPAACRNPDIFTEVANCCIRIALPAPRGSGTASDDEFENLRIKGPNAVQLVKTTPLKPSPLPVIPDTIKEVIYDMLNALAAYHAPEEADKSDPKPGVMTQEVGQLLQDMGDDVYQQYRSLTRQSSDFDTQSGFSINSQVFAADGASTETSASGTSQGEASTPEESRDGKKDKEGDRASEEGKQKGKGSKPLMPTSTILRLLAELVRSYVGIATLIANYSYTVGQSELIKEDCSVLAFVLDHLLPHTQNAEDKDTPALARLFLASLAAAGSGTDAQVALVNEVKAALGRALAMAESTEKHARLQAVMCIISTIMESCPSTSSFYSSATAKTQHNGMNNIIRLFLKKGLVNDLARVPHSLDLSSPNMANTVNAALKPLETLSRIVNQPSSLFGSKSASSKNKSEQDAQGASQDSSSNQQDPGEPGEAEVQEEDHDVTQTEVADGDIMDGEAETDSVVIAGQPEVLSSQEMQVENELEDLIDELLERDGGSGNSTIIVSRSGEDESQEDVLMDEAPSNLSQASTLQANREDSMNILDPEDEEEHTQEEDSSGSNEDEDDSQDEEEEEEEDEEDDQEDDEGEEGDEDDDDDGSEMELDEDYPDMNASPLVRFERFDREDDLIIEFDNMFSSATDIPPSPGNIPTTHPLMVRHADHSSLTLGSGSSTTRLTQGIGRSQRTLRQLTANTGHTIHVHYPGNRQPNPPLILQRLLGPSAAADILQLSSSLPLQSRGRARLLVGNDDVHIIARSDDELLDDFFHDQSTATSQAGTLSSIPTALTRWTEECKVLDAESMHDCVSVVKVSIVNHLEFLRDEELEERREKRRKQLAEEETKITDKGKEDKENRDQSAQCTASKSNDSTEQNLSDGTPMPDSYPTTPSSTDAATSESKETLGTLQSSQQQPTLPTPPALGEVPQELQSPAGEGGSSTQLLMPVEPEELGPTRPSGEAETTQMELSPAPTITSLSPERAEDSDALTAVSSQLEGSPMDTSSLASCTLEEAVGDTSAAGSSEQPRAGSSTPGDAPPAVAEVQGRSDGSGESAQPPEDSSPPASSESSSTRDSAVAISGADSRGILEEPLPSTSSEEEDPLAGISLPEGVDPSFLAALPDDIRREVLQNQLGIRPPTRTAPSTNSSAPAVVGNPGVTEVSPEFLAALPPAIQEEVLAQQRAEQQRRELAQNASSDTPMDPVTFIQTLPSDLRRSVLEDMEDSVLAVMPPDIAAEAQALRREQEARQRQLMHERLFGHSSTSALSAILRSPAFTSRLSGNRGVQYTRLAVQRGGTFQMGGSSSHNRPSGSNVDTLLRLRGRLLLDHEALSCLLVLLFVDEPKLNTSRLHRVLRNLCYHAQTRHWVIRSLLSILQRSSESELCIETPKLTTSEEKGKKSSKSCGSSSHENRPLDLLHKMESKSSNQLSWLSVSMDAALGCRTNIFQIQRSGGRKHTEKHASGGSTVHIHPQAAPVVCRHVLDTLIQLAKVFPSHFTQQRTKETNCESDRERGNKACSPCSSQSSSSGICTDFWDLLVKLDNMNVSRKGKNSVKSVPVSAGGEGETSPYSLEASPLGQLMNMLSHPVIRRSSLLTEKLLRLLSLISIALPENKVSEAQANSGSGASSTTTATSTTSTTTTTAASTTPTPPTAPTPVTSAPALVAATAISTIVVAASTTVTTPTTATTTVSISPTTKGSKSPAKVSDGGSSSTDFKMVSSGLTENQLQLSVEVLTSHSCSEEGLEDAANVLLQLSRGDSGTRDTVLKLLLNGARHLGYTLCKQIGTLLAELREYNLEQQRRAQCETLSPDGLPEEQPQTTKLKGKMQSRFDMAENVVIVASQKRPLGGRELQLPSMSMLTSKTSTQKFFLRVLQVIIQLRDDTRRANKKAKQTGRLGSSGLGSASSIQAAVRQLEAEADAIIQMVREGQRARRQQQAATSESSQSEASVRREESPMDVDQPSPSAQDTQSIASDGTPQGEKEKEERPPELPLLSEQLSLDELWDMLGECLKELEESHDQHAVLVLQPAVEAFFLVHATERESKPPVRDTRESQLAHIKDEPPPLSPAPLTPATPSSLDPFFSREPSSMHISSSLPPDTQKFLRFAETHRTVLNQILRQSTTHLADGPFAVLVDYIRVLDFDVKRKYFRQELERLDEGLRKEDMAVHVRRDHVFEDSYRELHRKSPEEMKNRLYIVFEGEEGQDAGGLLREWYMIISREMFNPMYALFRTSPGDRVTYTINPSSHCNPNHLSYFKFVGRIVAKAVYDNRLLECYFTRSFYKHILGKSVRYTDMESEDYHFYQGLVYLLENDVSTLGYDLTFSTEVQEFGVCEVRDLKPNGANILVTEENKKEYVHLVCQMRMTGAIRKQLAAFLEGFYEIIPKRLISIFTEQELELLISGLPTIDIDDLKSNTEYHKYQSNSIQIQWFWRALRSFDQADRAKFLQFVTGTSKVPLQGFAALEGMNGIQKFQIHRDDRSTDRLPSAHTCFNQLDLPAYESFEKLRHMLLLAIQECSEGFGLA

In the case of COC(=O)/C=C/C(=O)OC [DMF, dimethyl fumarate], the “R value (DMSO/DMF)” value ([1]; DMF 10 μM 4h) is reported as 1.69, the “R value (DMSO/DMF)” value ([1]; DMF 25 μM 4h) is reported as 1.78 and the “R value (DMSO/DMF)” value ([1]; DMF 50 μM 1h) is reported as 1.32. For the same compound, the “R value (DMSO/DMF)” value ([1]; DMF 50 μM 2h) was 3.13, the “R value (DMSO/DMF)” value ([1]; DMF 50 μM 4h) was 5.25 and the “R value (DMSO/DMF)” value ([2]; DMF 10 μM 4h) was 2.84. For the same compound, the “R value (DMSO/DMF)” value ([2]; DMF 50 μM 1h) was 9.34, the “R value (DMSO/DMF)” value ([2]; DMF 50 μM 2h) was 10.16 and the “R value (DMSO/DMF)” value ([2]; DMF 50 μM 4h) was 12.75. For the same compound, the “R value (DMSO/DMF)” value ([3]; DMF 10 μM 4h) was 1.58, the “R value (DMSO/DMF)” value ([3]; DMF 50 μM 1h) was 2.28 and the “R value (DMSO/DMF)” value ([3]; DMF 50 μM 2h) was 4.43. The “R value (DMSO/DMF)” value ([3]; DMF 50 μM 4h) was 10.48, the “R value (DMSO/DMF)” value ([4]; DMF 10 μM 4h) was 1.98 and the “R value (DMSO/DMF)” value ([4]; DMF 50 μM 1h) was 2.5. For the same compound, the “R value (DMSO/DMF)” value ([4]; DMF 50 μM 2h) was 3.91, the “R value (DMSO/DMF)” value ([4]; DMF 50 μM 4h) was 4.6 and the “R value (DMSO/DMF)” value ([5]; DMF 10 μM 4h) was 1.9. The “R value (DMSO/DMF)” value ([5]; DMF 25 μM 4h) was 5.32, the “R value (DMSO/DMF)” value ([5]; DMF 50 μM 1h) was 3.42 and the “R value (DMSO/DMF)” value ([5]; DMF 50 μM 2h) was 9.49. The “R value (DMSO/DMF)” value ([5]; DMF 50 μM 4h) was 11.51, the “DMF-sensitive Cys residues detected” value ([6]; 10 μM) was “very few” and the “number of Cys residues with R value >4 (of more than 2400 quantified)” value ([6]; 50 μM) was roughly 40. For the same compound, the “R value (DMSO/DMF)” value ([7]; DMF 50 μM 1h) was 2.5, the “R value (DMSO/DMF)” value ([7]; DMF 50 μM 2h) was 6.31 and the “R value (DMSO/DMF)” value ([7]; DMF 50 μM 4h) was 4.17. For the same compound, the “R value (DMSO/DMF)” value ([8]; DMF 10 μM 4h) was 1.38, the “R value (DMSO/DMF)” value ([8]; DMF 50 μM 1h) was 2.21 and the “R value (DMSO/DMF)” value ([8]; DMF 50 μM 2h) was 3.21. The “R value (DMSO/DMF)” value ([8]; DMF 50 μM 4h) was 4.86.
